pIC50: −log10 of the molar value. The source made the active and inactive calls.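 How the source made its calls: active means IC50 of 10 µM or lower; inactive means IC50 above 10 µM.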
System: HEK-293 Gal4-VP16 UAS luciferase reporter, luminescence
Test: VP16 transactivation inhibitor potency, dose response, counter-screen for SRC1 inhibitor project, cell-based, luminescence, high throughput, SRC1 series (AID 602236);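 further: inhibitor potency where hits lower luciferase light from Gal4-VP16 transactivation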

Compound | IC50 | pIC50
Cc1ccc(/C=C2/SC(=S)N(CCCC(=O)Nc3ccc(O)cc3)C2=O)cc1 | > 12 µM (inactive) | 
CN(c1ccc(C(=O)N2CCN(Cc3ccc4c(c3)OCO4)CC2)cc1)S(=O)(=O)c1ccccc1 | 13.5 µM (inactive) | 
COc1cc(C(=O)N/N=C(\c2ccccc2)c2ccccn2)cc(OC)c1OC |  | 5.06
CN(C)C(=O)c1ccc(-c2n[nH]c(=O)c3ccccc23)cc1 | 16.2 µM (inactive) | 
CCOc1ccc(/C=C2\SC(=S)N(CCC(=O)O)C2=O)cc1 | > 35.9 µM (inactive) | 
COc1ccc2[nH]c(=O)c(CN(CCN3CCCC3)C(=O)Nc3ccccc3Cl)cc2c1 | 23.8 µM (inactive) | 
O=C(Nc1ccncc1)c1ccccc1[N+](=O)[O-] | 14.2 µM (inactive) | 
OCCN1CCN(C(=S)c2ccc(-c3ccccc3)cc2)CC1 | 30.7 µM (inactive) | 
COc1ccc(Oc2nc3c(c(=O)n(C)c(=O)n3C)n2C)cc1 | 16.6 µM (inactive) | 
CN(C)C(=O)c1cccc(COc2ccc(N3C(N)=NC(N)=NC3(C)C)cc2Cl)c1 | > 35.8 µM (inactive) | 
CCC(=O)c1ccc(Oc2nc3c(c(=O)n(C)c(=O)n3C)n2CC)cc1 | 12.4 µM (inactive) | 
COc1cccc(/C=N/NC(=O)C(=O)Nc2ccccc2OC(F)(F)C(F)F)c1O | 10.7 µM (inactive) | 
CC(=O)/C(N=Nc1ccc2c(c1)OCCO2)=C(\C)O | > 35.9 µM (inactive) | 
Cc1cccn2c(=O)c3cc(C(=O)NCCN4CCOCC4)c(=N)n(Cc4cccnc4)c3nc12 | 13.5 µM (inactive) | 
c1nc2sc3c(c2c2nnnn12)CCCC3 | 13.3 µM (inactive) | 
COc1cc([C@@H]2c3cc4c(cc3[C@@H](O[C@@H]3O[C@@H]5CO[C@@H](C)O[C@H]5[C@H](O)[C@H]3O)[C@H]3COC(=O)[C@H]23)OCO4)cc(OC)c1O | > 35.9 µM (inactive) | 
O=C(N/N=C/c1coc2ccc(Cl)cc2c1=O)c1ccc(O)cc1 | > 35.9 µM (inactive) | 
Cn1c(=O)c2[nH]c(COc3ccc(C(C)(C)C)cc3)nc2n(C)c1=O |  | 5.08
Nc1ccn([C@@H]2O[C@H](CO)[C@@H](O)C2O)c(=O)n1 (stereo partly drawn) | 16.2 µM (inactive) | 

Compound | IC50 | pIC50
COc1ccc(Nc2ncnc3ccc(Br)cc23)c(OC)c1 | 15.9 µM (inactive) | 
CCN(CC(=O)Nc1ccc(NC(C)=O)cc1)C(=O)C1(c2ccc(Cl)cc2)CCC1 | > 35.9 µM (inactive) | 
Cc1ccc(C(=O)Nc2sc(C)c(-c3ccccc3)c2C(N)=O)cc1[N+](=O)[O-] | > 35.9 µM (inactive) | 
CC1(C)Cc2c(ccc3ccccc23)C(=O)N1 |  | 5.08
CCc1ccc(-c2nc(CSCC(=O)NCc3ccco3)c(C)o2)cc1 | 21.8 µM (inactive) | 
CCOc1ccc(-c2noc(CCC(=O)O)n2)cc1 | > 35.9 µM (inactive) | 
CCN(C(=O)c1cccc(S(=O)(=O)N(C)C)c1)C12CC3CC(CC(C3)C1)C2 | 15.7 µM (inactive) | 
COc1cccc(NC(=O)CN(C)CC(=O)Nc2ccc(Cl)cc2[N+](=O)[O-])c1 | 20.3 µM (inactive) | 
Cc1c2ccncc2cc2c1[nH]c1ccccc12 |  | 5.19
O=C(CCCOc1ccc(Cl)cc1Cl)N/N=C/c1ccccc1O |  | 5.32
Nc1ccn(C2OC(CO)C(O)C2O)c(=O)n1 (stereo not drawn) | 21.7 µM (inactive) | 
O=C(CCn1cnc(-c2ccccc2)c1-c1ccccc1)N/N=C/c1ccccc1O | 19.9 µM (inactive) | 
CC(=O)C1=C(C)NC2=C(C(=O)CC(C)(C)C2)C1C (stereo not drawn) | 13.1 µM (inactive) | 
Cc1ccc(NC(=O)NC2CC(=O)N(c3ccc4c(c3)OCCO4)C2)cc1C (stereo not drawn) | 20.6 µM (inactive) | 
Cc1sc2ncnc(N3CCC(C(=O)Nc4cc(S(C)(=O)=O)ccc4Cl)CC3)c2c1C | 20.7 µM (inactive) | 
COc1ccc2c(c1)-c1c(ssc1=S)C(C)(C)N2C(=O)CSC1=NCCS1 | 20.6 µM (inactive) | 
COc1ccc(-c2cc(=O)oc3c(C)c(O)c(CN(C)C)cc23)cc1 | 15 µM (inactive) | 
C=CCn1c(Oc2ccccc2F)nc2c1c(=O)n(C)c(=O)n2C |  | 5.07
Cc1c(/C(O)=C2/C(=O)C(=O)N(Cc3cccnc3)C2c2ccccn2)cnn1-c1ccccc1 (stereo not drawn) | > 35.9 µM (inactive) | 
